Patent US10428104B2, “Substituted nucleoside derivatives useful as anticancer agents” (Pfizer Inc., priority 2015, dated 2019)
pIC50: −log10 of the molar value.

Columns and labels:
[1] = biological target: PRMT5/MEP50 protein complex (Homo sapiens (Human), UniProt O14744); assay: PRMT5 biochemical assay (3H-SAM methylation of H4(1-21) peptide, filter plate scintillation counting); conditions: PRMT5 enzyme inhibition; 10 nM PRMT5/MEP50 complex, 200 nM H4(1-21) peptide, 1 uM SAM, 25 minute incubation at room temperature
Chain of PRMT5/MEP50 protein complex (O14744 other isoform, or with tags, fused parts or gaps): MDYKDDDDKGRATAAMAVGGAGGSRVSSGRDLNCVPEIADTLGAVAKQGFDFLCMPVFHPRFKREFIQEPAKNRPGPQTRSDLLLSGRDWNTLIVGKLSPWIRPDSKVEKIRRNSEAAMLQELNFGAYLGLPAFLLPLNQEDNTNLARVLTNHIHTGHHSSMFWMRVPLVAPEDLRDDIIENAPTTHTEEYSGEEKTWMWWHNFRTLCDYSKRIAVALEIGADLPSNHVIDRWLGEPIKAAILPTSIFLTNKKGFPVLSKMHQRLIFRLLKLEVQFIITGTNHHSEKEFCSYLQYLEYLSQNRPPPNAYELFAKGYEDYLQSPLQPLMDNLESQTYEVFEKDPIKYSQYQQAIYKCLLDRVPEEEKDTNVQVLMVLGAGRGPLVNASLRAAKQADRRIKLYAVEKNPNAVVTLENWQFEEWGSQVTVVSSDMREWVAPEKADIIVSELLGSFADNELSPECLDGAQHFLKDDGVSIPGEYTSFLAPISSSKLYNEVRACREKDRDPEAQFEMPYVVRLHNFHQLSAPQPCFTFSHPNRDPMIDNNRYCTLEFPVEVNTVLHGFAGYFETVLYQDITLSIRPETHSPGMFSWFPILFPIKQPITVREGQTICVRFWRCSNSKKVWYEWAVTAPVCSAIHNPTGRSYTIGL
Chain of PRMT5/MEP50 protein complex (Q9BQA1 whole entry partner): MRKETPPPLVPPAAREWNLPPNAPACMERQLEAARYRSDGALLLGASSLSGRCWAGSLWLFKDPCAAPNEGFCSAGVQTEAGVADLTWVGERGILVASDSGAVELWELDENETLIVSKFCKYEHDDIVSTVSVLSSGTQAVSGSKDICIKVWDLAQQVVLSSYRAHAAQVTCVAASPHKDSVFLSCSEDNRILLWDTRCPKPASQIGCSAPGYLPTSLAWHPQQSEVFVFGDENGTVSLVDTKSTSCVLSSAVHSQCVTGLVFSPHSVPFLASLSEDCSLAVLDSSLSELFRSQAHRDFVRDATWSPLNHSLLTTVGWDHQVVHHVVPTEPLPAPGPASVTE
Summary of the method: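 Flag-PRMT5/MEP50 was co-expressed in Sf21 cells and Flag-affinity purified. Reactions used 10 nM complex, 200 nM H4(1-21) peptide and 1 uM 3H-SAM (final) in 50 mM Tris pH 8.5, 50 mM NaCl, 5 mM MgCl2, 1 mM EDTA and 1 mM TCEP, run 25 min at room temperature. Reactions were TCA-stopped, filter-captured and scintillation-counted; IC50 came from a 4-parameter fit.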

[2] = tested on: A549 lung adenocarcinoma cells; assay: A549 proliferation assay (Cell Titer Glo, 7 days); format: cell-based; conditions: Homo sapiens, 168 h, 7 days with compound, cell viability by Cell Titer Glo (ATP)
Protocol: A549 lung adenocarcinoma cells (American Type CuIture Collection) were maintained in DMEM growth media (Life Technologies) supplemented with 10% v/v heat inactivated fetal bovine serum (Sigma) and cultured at 37° C., 5% CO2. Exponentially growing A549 cells were plated in 96-well black tissue culture treated plates (Corning) at a density of 2500 cells/ml in a volume of 100 μl culture media and allowed to adhere overnight at 37° C., 5% CO2. The following day, compound plates were prepared by making nine-point 3.3-fold dilutions in DMSO with a top concentration of 10 mM. Compounds were further diluted in culture media and 11 μl was added to the cells (final top assay concentration was 10 μM and DMSO was […]). Cells were incubated with compound at 37° C., 5% CO2 for 7 days with media and compound replacement on day 4. Cell viability was assayed on Day 7 by adding 100 μl Cell Titer Glo (Promega) reagent to the plate to measure the amount of ATP present in the cells. Luminescence was read using the Envision 2104 Multilabel Reader (Perkin Elmer).
Results for the A549 proliferation assay of examples are summarized in Table 2, shown as IC50 values in μM.

pIC50 [1] | pIC50 [2] | SMILES
8.70 | 7.34 | O[C@@H]1[C@H](O)[C@@H]([C@H](O)c2ccc(Cl)c(F)c2)O[C@H]1n1ccc2cncnc21 [Example 115, (2R,3S,4R,5R)-2-((R)-(4-chloro-3-fluorophenyl)(hydroxy)methyl)-5-(7H-pyrrolo[2,3-d]pyrimidin-7-yl)tetrahydrofuran-3,4-diol]
8.30 | 5.79 | N[C@H](c1ccc(Cl)c(F)c1)[C@H]1O[C@@H](n2ccc3cncnc32)[C@H](O)[C@@H]1O [Example 116, (2R,3S,4R,5R)-2-((R)-amino(4-chloro-3-fluorophenyl)methyl)-5-(7H-pyrrolo[2,3-d]pyrimidin-7-yl)tetrahydrofuran-3,4-diol]
8.30 | 7.04 | O[C@@H]1[C@H](O)[C@@H]([C@H](O)c2ccc(F)c(F)c2)O[C@H]1n1ccc2cncnc21 [Example 117, (2R,3S,4R,5R)-2-((R)-(3,4-difluorophenyl)(hydroxy)methyl)-5-(7H-pyrrolo[2,3-d]pyrimidin-7-yl)tetrahydrofuran-3,4-diol]
8.15 | 6.49 | Nc1ncnc2c1c(I)cn2[C@@H]1O[C@H]([C@H](O)c2ccc(F)c(F)c2)[C@@H](O)[C@H]1O [Example 119, (2R,3R,4S,5R)-2-(4-amino-5-iodo-7H-pyrrolo[2,3-d]pyrimidin-7-yl)-5-((R)-(3,4-difluorophenyl)(hydroxy)methyl)tetrahydrofuran-3,4-diol]
